Values of other authors as cited in US20070148205A1, “Prevention of Arterial Restenosis with Active Vitamin D Compounds” (priority 2004, published 2007).

Settings: in vivo

Hypercalcemic effect compared to calcitriol, in words: reduced hypercalcemic effect
SMILES: C=C1/C(=C\C=C2/CCC[C@]3(C)C([C@H](C)CC#CC(C)(C)O)=CC[C@@H]23)C[C@@H](O)C[C@@H]1O [Ro23-7553]
